Measurements: patent US8609836B2, “4-aryl-2-anilino-pyrimidines” (Janssen Pharmaceutica NV, priority 2008, dated 2013)
pIC50: −log10 of the molar value.

Tests used:
PLK4 (h) = PLK4 (h) (Homo sapiens, UniProt O00444); assay: PLK-4 human kinase inhibition, scintillation proximity assay (SPA); type: biochemical; conditions: read-out: PLK4 pIC50 (converted)
CDK1/CyclinB (h) = CDK1/CyclinB (h) (Homo sapiens, UniProt P06493); assay: CDK1/CyclinB human kinase inhibition, Invitrogen's FRET assay (Z'lyte); type: biochemical; conditions: read-out: CDK1 pIC50 (converted)
CDK1/CyclinB (h), sequence (P06493 whole entry): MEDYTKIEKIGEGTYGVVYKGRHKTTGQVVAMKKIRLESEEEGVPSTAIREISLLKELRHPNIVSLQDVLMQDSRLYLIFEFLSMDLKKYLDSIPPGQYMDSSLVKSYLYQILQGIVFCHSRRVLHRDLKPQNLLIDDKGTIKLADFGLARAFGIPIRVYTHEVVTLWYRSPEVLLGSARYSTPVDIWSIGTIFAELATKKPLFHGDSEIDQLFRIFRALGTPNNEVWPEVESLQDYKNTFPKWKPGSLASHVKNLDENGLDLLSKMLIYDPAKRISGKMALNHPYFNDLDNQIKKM
CDK1/CyclinB (h), sequence (P14635 whole entry partner): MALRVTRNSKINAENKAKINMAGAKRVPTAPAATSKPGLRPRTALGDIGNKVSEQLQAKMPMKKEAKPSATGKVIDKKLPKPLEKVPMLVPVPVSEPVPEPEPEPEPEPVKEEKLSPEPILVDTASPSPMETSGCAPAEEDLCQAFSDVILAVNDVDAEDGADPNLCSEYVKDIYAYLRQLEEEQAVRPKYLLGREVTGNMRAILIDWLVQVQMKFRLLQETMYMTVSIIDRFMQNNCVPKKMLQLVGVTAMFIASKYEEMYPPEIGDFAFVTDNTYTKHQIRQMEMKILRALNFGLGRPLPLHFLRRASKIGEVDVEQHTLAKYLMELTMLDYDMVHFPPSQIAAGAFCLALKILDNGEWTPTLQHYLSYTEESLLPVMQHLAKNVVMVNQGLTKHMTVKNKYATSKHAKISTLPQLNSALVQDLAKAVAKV
Method in brief: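 Read-out is the 460 nm/538 nm emission ratio (390 nm excitation) after a 60 min protease development step. Before that, 10 μM ATP and 2 μM Z'lyte Ser/Thr peptide 12 react 60 min at room temperature with 0.2 μg/ml human CDK1/CyclinB in Hepes pH 7.5 containing MgCl2, EGTA and Brij-35.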

PLK1 T210D (h) = PLK1 T210D (h) (Homo sapiens, UniProt P53350, T210D); assay: PLK1 human kinase inhibition, SPA; type: biochemical; conditions: read-out: PLK1 pIC50 (converted)
PLK1 T210D (h), sequence (P53350 whole entry T210D): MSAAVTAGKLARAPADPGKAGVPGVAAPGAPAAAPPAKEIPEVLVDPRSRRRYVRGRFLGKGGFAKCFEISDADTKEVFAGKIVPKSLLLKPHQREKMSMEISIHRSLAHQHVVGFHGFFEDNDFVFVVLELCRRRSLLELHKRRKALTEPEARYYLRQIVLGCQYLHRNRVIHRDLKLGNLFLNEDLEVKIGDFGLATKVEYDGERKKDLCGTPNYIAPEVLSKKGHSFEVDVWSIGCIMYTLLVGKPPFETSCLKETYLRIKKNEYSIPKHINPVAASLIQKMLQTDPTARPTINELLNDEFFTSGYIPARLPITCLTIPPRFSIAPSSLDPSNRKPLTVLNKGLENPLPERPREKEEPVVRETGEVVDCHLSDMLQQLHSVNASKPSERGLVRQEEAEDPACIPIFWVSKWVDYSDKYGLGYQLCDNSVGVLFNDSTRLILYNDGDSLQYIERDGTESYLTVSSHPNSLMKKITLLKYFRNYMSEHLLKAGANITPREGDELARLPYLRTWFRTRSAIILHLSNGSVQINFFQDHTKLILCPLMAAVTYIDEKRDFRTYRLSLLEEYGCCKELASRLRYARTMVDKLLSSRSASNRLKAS
Method in brief: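 Kinase incubated 40 min at room temperature with 0.1 μM ATP (2 nM [γ-33P]ATP tracer), 2 μM biotinylated peptide, pH 8.0 Hepes buffer with 2 mM MnCl2 and 1 mM DTT; enzyme at 0.125 ng/ml. Stopped with EDTA; 33P-peptide bound to streptavidin scintillant beads and imaged.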

PLK2 (h) = PLK2 (h) (Homo sapiens, UniProt Q9NYY3); assay: PLK2 human kinase inhibition, SPA; type: biochemical; conditions: read-out: PLK2 pIC50 (converted)
PLK2 (h), sequence (Q9NYY3 whole entry): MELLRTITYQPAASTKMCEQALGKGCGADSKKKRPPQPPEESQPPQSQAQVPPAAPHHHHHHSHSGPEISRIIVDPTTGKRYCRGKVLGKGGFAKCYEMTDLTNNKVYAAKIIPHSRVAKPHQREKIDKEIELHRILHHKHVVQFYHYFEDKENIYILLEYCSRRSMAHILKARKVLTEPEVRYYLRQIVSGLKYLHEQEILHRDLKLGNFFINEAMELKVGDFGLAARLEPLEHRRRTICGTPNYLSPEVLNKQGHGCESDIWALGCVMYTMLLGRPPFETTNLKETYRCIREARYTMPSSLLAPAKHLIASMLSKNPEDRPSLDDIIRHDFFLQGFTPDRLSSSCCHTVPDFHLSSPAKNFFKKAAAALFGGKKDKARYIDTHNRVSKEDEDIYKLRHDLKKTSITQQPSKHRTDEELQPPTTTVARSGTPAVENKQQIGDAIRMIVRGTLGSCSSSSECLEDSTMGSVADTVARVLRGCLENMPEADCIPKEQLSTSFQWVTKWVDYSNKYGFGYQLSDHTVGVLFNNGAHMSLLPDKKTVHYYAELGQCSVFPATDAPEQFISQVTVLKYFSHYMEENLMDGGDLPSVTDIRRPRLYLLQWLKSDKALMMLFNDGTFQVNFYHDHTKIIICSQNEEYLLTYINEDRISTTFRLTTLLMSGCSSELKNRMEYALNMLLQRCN
Method in brief: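 33P incorporation into a biotinylated peptide (2 μM) was captured on streptavidin PVT beads and imaged on Leadseeker. Enzyme at 30 μg/ml, ATP 0.1 μM with 2 nM [γ-33P]ATP, Hepes pH 8.0 with MnCl2 and DTT. Incubation was 20 min at room temperature.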

PLK3 (h) = PLK3 (h) (Homo sapiens, UniProt Q9H4B4); assay: PLK3 human kinase inhibition, SPA; type: biochemical; conditions: read-out: PLK3 pIC50 (converted)
PLK3 (h), sequence (Q9H4B4 whole entry): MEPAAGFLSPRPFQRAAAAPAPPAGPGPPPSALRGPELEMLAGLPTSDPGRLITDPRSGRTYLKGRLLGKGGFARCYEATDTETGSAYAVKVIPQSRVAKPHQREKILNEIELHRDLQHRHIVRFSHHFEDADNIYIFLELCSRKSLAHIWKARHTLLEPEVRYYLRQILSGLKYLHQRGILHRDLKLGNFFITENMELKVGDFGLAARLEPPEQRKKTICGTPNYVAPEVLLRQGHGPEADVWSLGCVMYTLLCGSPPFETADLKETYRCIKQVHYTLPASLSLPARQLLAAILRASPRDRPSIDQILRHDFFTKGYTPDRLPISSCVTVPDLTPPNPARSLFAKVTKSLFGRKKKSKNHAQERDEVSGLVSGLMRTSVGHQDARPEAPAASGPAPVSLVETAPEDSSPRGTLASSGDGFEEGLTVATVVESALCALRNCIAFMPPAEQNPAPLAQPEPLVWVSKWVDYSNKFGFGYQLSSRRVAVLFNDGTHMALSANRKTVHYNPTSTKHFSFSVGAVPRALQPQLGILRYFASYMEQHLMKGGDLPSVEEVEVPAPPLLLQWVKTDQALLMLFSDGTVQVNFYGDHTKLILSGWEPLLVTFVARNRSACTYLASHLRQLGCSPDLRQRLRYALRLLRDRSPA
Method in brief: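 Radiometric scintillation proximity format at pH 8.0 (Hepes, MnCl2, DTT). The 2 μM biotin-peptide substrate is phosphorylated by PLK3 (h) (30 μg/ml) using 0.1 μM ATP traced with 33P, for 20 min at room temperature. EDTA stop; phosphopeptide captured on streptavidin beads and imaged.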

H1299 = assay: Cellular proliferation assay (Alamar blue), H1299; type: cell-based; conditions: Homo sapiens, NCI-H1299; 10% FCS; 72 hours with compound; Alamar blue 4 h
Method in brief: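 This proliferation assay on NCI-H1299 cells used an initial 24-hour compound-free incubation after seeding, followed by 72 hours of compound treatment with 10% FCS serum at 37° C. and 5% (v/v) CO2. Viable cells were quantified by a 4 h Alamar blue incubation and fluorescent plate reading at 544 nm/590 nm, and effects were expressed relative to control cells.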

U87-MG = assay: Cellular proliferation assay (Alamar blue), U87-MG; type: cell-based; conditions: Homo sapiens, U-87 MG; 10% FCS; 72 hours with compound; Alamar blue 6 h; read-out: U87-MG (cellular proliferation assay, Table 4) (converted)
Method in brief: (§1)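 After a 24 h compound-free attachment period, cells in 10% FCS medium are treated for 72 h at 37° C. Resazurin conversion is then quantified by fluorescence, with dye incubation lasting 4 h for HCT-116, 6 h for U87-MG and 24 h for A2780 or MDA-MB-231.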

A2780 = assay: Cellular proliferation assay (Alamar blue), A2780; type: cell-based; conditions: Homo sapiens, 10% FCS, 72 hours with compound, Alamar blue 24 h, read-out: A2780 (cellular proliferation assay, Table 4) (converted)
Method in brief: as §1

MDA-MB-231 = assay: Cellular proliferation assay (Alamar blue), MDA-MB-231; type: cell-based; conditions: Homo sapiens, 10% FCS, 72 hours with compound, Alamar blue 24 h, read-out: MDA/MB231 (cellular proliferation assay, Table 4) (converted)
Method in brief: as §1

PLK4 (h), sequence (O00444 whole entry): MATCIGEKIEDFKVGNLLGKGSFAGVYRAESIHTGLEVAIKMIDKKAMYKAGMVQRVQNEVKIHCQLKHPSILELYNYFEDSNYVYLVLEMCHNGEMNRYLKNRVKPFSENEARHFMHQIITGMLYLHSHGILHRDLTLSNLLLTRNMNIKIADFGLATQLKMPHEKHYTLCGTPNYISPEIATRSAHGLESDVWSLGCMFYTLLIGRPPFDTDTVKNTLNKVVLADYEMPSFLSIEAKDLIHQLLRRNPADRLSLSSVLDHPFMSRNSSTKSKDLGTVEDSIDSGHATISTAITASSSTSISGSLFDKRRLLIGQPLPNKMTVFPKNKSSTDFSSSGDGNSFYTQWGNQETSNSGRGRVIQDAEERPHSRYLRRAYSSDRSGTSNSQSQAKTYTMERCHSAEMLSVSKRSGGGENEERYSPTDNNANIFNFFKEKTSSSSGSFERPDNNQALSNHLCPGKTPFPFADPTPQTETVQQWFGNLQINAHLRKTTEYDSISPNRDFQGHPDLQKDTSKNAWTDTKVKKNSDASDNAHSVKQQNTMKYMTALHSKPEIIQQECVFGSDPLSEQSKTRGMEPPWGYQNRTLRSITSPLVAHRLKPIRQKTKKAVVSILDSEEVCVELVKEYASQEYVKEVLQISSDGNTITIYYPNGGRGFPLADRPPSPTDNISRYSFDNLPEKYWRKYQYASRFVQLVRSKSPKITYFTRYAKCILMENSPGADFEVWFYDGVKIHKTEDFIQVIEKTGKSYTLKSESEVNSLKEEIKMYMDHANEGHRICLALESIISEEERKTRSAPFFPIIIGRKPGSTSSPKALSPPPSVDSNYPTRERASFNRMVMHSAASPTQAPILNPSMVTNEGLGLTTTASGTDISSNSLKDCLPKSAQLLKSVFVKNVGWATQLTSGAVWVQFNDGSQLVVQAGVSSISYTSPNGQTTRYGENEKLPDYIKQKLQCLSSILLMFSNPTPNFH

SMILES | IC50 (PLK4 (h)) [µM] | IC50 (CDK1/CyclinB (h)) [µM] | IC50 (PLK1 T210D (h)) [µM] | IC50 (PLK2 (h)) [µM] | IC50 (PLK3 (h)) [µM] | pIC50 (H1299) | IC50 (U87-MG) [µM] | IC50 (A2780) [µM] | IC50 (MDA-MB-231) [µM]
O=C1CN2CCN(CC2)Cc2cc(ccc2N2CCOCC2)Nc2nccc(n2)-c2ccc(cc2)CN1 [Compound 194] | 1.12 | > 10 | > 10 | > 10 | > 10 | < 5.00 | > 10 | > 10 | > 10
O=C1NCc2cccc(c2)-c2ccnc(n2)Nc2ccccc2CN2CCC[C@@H]12 [Compound 57] | > 10 | > 10 | > 10 | > 10 | > 1 | < 5.00 | > 10 | > 10 | > 10
O=C1NCc2cccc(c2)-c2ccnc(n2)Nc2ccc(N3CCOCC3)c(c2)CN2C[C@@H](O)C[C@@H]12 [Compound 27] | 0.11 | 1.91 | > 10 | > 10 | > 10 | 5.53 | 5.37 | 0.661 | 3.8
C[C@@H]1NCc2cccc(c2)Nc2nccc(n2)-c2cccc(c2)CNC1=O [Compound 184] | 0.776 | 0.398 | > 10 | > 10 | > 10 | 5.01 | > 10 | 5.01 | > 10
COc1ccc2cc1CN(C)CCNC(=O)C1CCN(CC1)Cc1cc(NCCc3ccccc3)cc(c1)Nc1nccc-2n1 [Compound 74] | 2.95 | > 10 | > 10 | > 10 | > 10 | < 5.00 | 3.98 | 3.02 | 5.89
O=C1CN2CCN(CC2)Cc2cccc(c2)Nc2nccc(n2)-c2cccc(c2)CN1 [Compound 196] | > 10 | > 10 | > 10 | > 10 | > 10 | < 5.00 | > 10 | > 10 | > 10
O=C1NCc2cccc(c2)-c2ccnc(n2)Nc2cc(ccc2Cl)CN[C@H]1CO [Compound 188] | 2.09 | 9.12 | > 10 | > 10 | > 10 | < 5.00 | > 10 | > 10 | > 10
O=C1CN2CCN(CC2)Cc2ccc(Cl)c(c2)Nc2nccc(n2)-c2cccc(c2)CN1 [Compound 195] | > 10 | > 10 | > 10 | > 10 | > 10 | < 5.00 | > 10 | > 10 | > 10
O=C1CN2CCN(CC2)Cc2cc(ccc2N2CCOCC2)Nc2nccc(n2)-c2cccc(c2)OCCN1 [Compound 102] | 0.794 | 2.57 | > 10 | > 10 | > 10 | 5.94 | 3.09 | 6.46 | 6.61
O=C1NCc2ccc(cc2)-c2ccnc(n2)Nc2ccc(N3CCOCC3)c(c2)CN2CCC[C@@H]12 [Compound 49] | 5.89 | > 10 | > 10 | > 10 | > 10 | < 5.00 | 1.74 | 4.07 | > 10
COc1cc2cc(c1)Nc1nccc(n1)-c1ccc(OC)c(c1)CN(C)CCNC(=O)C1CCN(CC1)C2 [Compound 67] | 1.51 | > 10 | > 10 | > 3.02 | > 10 | < 5.00 | > 10 | > 10 | > 10
O=C1NCc2cccc(c2)-c2ccnc(n2)Nc2cc(ccc2Cl)CN[C@H]1Cc1ccccc1 [Compound 189] | > 10 | 5.62 | > 10 | > 10 | > 10 | < 5.00 | > 10 | > 10 | > 10
O=C1NCc2cccc(c2)-c2ccnc(n2)Nc2ccc(cc2)CN2C[C@H](O)C[C@@H]12 [Compound 55] | > 10 | > 10 | > 10 | > 10 | > 10 | < 5.00 | > 10 | > 10 | > 10
COc1ccc2cc1CN(C)CCNC(=O)[C@@H]1CCCN1Cc1cc(cc(N3CCOCC3)c1)Nc1nccc-2n1 [Compound 152] | 0.692 | > 10 | > 10 | > 10 | > 10 | < 5.00 | > 10 | > 10 | > 10
O=C1NCc2cccc(c2)-c2ccnc(n2)Nc2cc(ccc2Cl)CN2C[C@H](O)C[C@@H]12 [Compound 52] | > 10 | > 10 | > 10 | > 10 | > 10 | < 5.00 | > 10 | > 10 | > 10
C[C@@H]1NCCc2cccc(c2)-c2ccnc(n2)Nc2ccc(N3CCOCC3)c(c2)CNC1=O [Compound 100] | 1.15 | 0.151 | > 10 | > 10 | > 10 | 5.53 | 0.603 | 3.02 | 3.47
COc1cc2cc(c1)Nc1nccc(n1)-c1ccc(cc1)CN(C)CCNC(=O)[C@@H]1CCCN1C2 [Compound 158] | 1.15 | 8.71 | > 10 | > 3.02 | 7.08 | < 5.00 | > 10 | > 10 | > 10
CC(C)Nc1cc2cc(c1)Nc1nccc(n1)-c1ccc(cc1)CN(C)CCCNC(=O)CN1CCN(CC1)C2 [Compound 131] | 1.26 | > 10 | > 10 | > 10 | > 10 | < 5.00 | > 10 | > 10 | > 10
CN1CCC(NC(=O)c2ccc3cc2CN2CCC[C@H]2C(=O)NCc2cccc(c2)-c2ccnc(n2)N3)CC1 [Compound 47] | 0.646 | 2 | > 10 | > 10 | > 1 | 5.02 | 7.08 | 3.72 | 5.13
COc1ccc2cc1CN(C)CCNC(=O)[C@@H]1CCCN1Cc1cc(cc(NC(C)C)c1)Nc1nccc-2n1 [Compound 165] | 2.82 | > 10 | > 10 | > 10 | > 10 | < 5.00 | 6.17 | > 10 | > 10
COc1ccc2cc1CN(C)CCCNC(=O)[C@@H]1CCCN1Cc1cc(NCCc3ccccc3)cc(c1)Nc1nccc-2n1 [Compound 167] | 3.55 | > 10 | > 10 | > 10 | > 10 | < 5.00 | 3.72 | 2.75 | 6.46
COc1cc2cc(c1)Nc1nccc(n1)-c1ccc(cc1)CN(C)CCNC(=O)[C@H](CO)NC2 [Compound 109] | 0.741 | > 10 | > 10 | > 10 | > 10 | < 5.00 | 5.62 | > 10 | > 10
